From patent US20200055839A1 (priority 2017, published 2020)

Test system: NL-RLuc virus
Assay: Inhibition of HIV replication (NL-RLuc virus, luciferase readout in MT-2 cells)
Type: cell-based
Conditions: Human immunodeficiency virus 1, MT2, 120 h, MT-2 cells infected with NL-RLuc virus, 5 days of incubation, 10% FBS, at least 2 experiments
In short: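 EC50 derived via median effect equation from at least 2 experiments, using luciferase expression as virus-growth readout. Replication-competent NL-RLuc reporter virus (nef partly replaced by Renilla luciferase) infected MT-2 cells with serial compound dilutions; 5-day incubation in RPMI 1640 plus 10% FBS.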

Row | SMILES | EC50
1 | Cc1cccc(-c2cnc(C)c([C@H](OC(C)(C)C)C(=O)O)c2N2CCC(C)(C)CC2)c1F [Example 163, (2S)-2-(tert-Butoxy)-2-[4-(4,4-dimethylpiperidin-1-yl)-5-(2-fluoro-3-methylphenyl)-2-methylpyridin-3-yl]acetic acid] | 6 nM
2 | Cc1ncc(-c2ccc(O[C@H](C)C(C)C)cn2)c(N2CCC(C)(C)CC2)c1[C@H](OC(C)(C)C)C(=O)O [Example 319, (2S)-2-(tert-butoxy)-2-[4′-(4,4-dimethylpiperidin-1-yl)-6′-methyl-5-{[(2R)-3-methylbutan-2-yl]oxy}-[2,3′-bipyridine]-5′-yl]acetic acid] | 7 nM
3 | Cc1nc(N)c([C@H](OC(C)(C)C)C(=O)O)c(N2CCC(C)(C)CC2)c1-c1ccc(OCCc2ccc(F)cc2)cc1 [Example 2, (S)-2-(2-Amino-4-(4,4-dimethylpiperidin-1-yl)-5-(4-(4-fluorophenethoxy)phenyl)-6-methylpyridin-3-yl)-2-(tert-butoxy)acetic acid] | 5 nM
4 | Cc1ncc(-c2ccc(OCCc3cc(F)cc(F)c3)cn2)c(N2CCC(C)(C)CC2)c1[C@H](OC(C)(C)C)C(=O)O [Example 323, (2S)-2-(tert-butoxy)-2-{5-[2-(3,5-difluorophenyl)ethoxy]-4′-(4,4-dimethylpiperidin-1-yl)-6′-methyl-[2,3′-bipyridine]-5′-yl}acetic acid] | 1 nM
5 | Cc1ncc(-c2ccc(CCC(C)C)nc2)c(N2CCC(C)(C)CC2)c1[C@H](OC(C)(C)C)C(=O)O [Example 420, (S)-2-(tert-Butoxy)-2-(4-(4,4-dimethylpiperidin-1-yl)-6′-isopentyl-6-methyl-[3, 3′-bipyridin]-5-yl)acetic acid] | 13 nM
6 | CCC(C)(C)O[C@H](C(=O)O)c1c(C)ncc(-c2ccc(OCCc3ccc(F)cc3)c(F)c2)c1N1CCC(C)(C)CC1 [Example 226, (S)-2-(4-(4,4-Dimethylpiperidin-1-yl)-5-(3-fluoro-4-(4-fluorophenethoxy)phenyl)-2-methylpyridin-3-yl)-2-(tert-pentyloxy)acetic acid] | 5 nM
7 | CC(=O)N1CCC(Nc2nc(C)c([C@H](OC(C)(C)C)C(=O)O)c(N3CCC(C)(C)CC3)c2-c2ccc(OCCc3ccc(F)cc3)cc2)CC1 [Example 100, (S)-2-(6-((1-Acetylpiperidin-4-yl)amino)-4-(4,4-dimethylpiperidin-1-yl)-5-(4-(4-fluorophenethoxy)phenyl)-2-methylpyridin-3-yl)-2-(tert-butoxy)acetic acid] | 0.5 nM
8 | Cc1nc(N)c(-c2cc(F)c(OCCc3ccc(F)cc3)c(F)c2)c(N2CCC(C)(C)CC2)c1[C@H](OC(C)(C)C)C(=O)O [Example 60, (S)-2-(6-Amino-5-(3,5-difluoro-4-(4-fluorophenethoxy)phenyl)-4-(4,4-dimethylpiperidin-1-yl)-2-methylpyridin-3-yl)-2-(tert-butoxy)acetic acid] | 25 nM
9 | Cc1nc(NCc2cccnc2)c(-c2ccc(OCCc3ccc(F)cc3)cc2)c(N2CCC(C)(C)CC2)c1[C@H](OC(C)(C)C)C(=O)O [Example 92, (S)-2-(tert-Butoxy)-2-(4-(4,4-dimethylpiperidin-1-yl)-5-(4-(4-fluorophenethoxy)phenyl)-2-methyl-6-((pyridin-3-ylmethyl)amino)pyridin-3-yl)acetic acid] | 4 nM
10 | Cc1nc(NCCCN2CCCCC2)c(-c2ccc(OCCc3ccc(F)cc3)cc2)c(N2CCC(C)(C)CC2)c1[C@H](OC(C)(C)C)C(=O)O [Example 35, (S)-2-(tert-Butoxy)-2-(4-(4,4-dimethylpiperidin-1-yl)-5-(4-(4-fluorophenethoxy)phenyl)-2-methyl-6-((3-(piperidin-1-yl)propyl)amino)pyridin-3-yl)acetic acid] | 1 nM
11 | Cc1ncc(-c2ccc(OCCc3cccc(Cl)c3)cn2)c(N2CCC(C)(C)CC2)c1[C@H](OC(C)(C)C)C(=O)O [Example 308, (2S)-2-(tert-butoxy)-2-{5-[2-(3-chlorophenyl)ethoxy]-4′-(4,4-dimethylpiperidin-1-yl)-6′-methyl-[2,3′-bipyridine]-5′-yl}acetic acid] | 0.7 nM
12 | Cc1ncc(-c2cnc(O[C@H](C)C(C)C)c(F)c2)c(N2CCC(C)(C)CC2)c1[C@H](OC(C)(C)C)C(=O)O [Example 369, (2S)-2-(tert-butoxy)-2-[4-(4,4-dimethylpiperidin-1-yl)-5′-fluoro-6-methyl-6′-{[(2R)-3-methylbutan-2-yl]oxy}-[3,3′-bipyridine]-5-yl]acetic acid] | 2 nM
13 | Cc1nc(Nc2ccnnc2)c(-c2ccc(OCCc3ccc(F)cc3)c(F)c2)c(N2CCC(C)(C)CC2)c1[C@H](OC(C)(C)C)C(=O)O [Example 74, (S)-2-(tert-Butoxy)-2-(4-(4,4-dimethylpiperidin-1-yl)-5-(3-fluoro-4-(4-fluorophenethoxy)phenyl)-2-methyl-6-(pyridazin-4-ylamino)pyridin-3-yl)acetic acid] | 2 nM
14 | Cc1ncc(-c2ccc(OCCc3ccccc3Cl)cn2)c(N2CCC(C)(C)CC2)c1[C@H](OC(C)(C)C)C(=O)O [Example 302, (2S)-2-(tert-butoxy)-2-{5-[2-(2-chlorophenyl)ethoxy]-4′-(4,4-dimethylpiperidin-1-yl)-6′-methyl-[2,3′-bipyridine]-5′-yl}acetic acid] | 0.6 nM
15 | Cc1ccc(CCOc2ccc(-c3cnc(C)c([C@H](OC(C)(C)C)C(=O)O)c3N3CCC(C)(C)CC3)nc2)cc1F [Example 332, (2S)-2-(tert-butoxy)-2-[4′-(4,4-dimethylpiperidin-1-yl)-5-[2-(3-fluoro-4-methylphenyl)ethoxy]-6′-methyl-[2,3′-bipyridine]-5′-yl]acetic acid] | 0.5 nM
16 | COc1ccc(-c2cnc(C)c([C@H](OC(C)(C)C)C(=O)O)c2N2CCC(C)(C)CC2)cc1 [Example 136, (2S)-2-(tert-Butoxy)-2-[4-(4,4-dimethylpiperidin-1-yl)-5-(4-methoxyphenyl)-2-methylpyridin-3-yl]acetic acid] | 2 nM
17 | Cc1ncc(-c2ccc(CNc3ncnc4c3oc3ccccc34)cc2)c(N2CCC(C)(C)CC2)c1[C@H](OC(C)(C)C)C(=O)O [Example 21, (2S)-2-(tert-Butoxy)-2-[4-(4,4-dimethylpiperidin-1-yl)-2-methyl-5-{4-[({8-oxa-3,5-diazatricyclo[7.4.0.0^2,7]trideca-1(9), 2(7), 3,5,10, 12-hexaen-6-yl}amino)methyl]phenyl}pyridin-3-yl]acetic acid] | 2 nM
18 | CCc1ncc(-c2ccc(OCC(C)C)cn2)c(N2CCC(C)(C)CC2)c1[C@H](OC(C)(C)C)C(=O)O [Example 277, (S)-2-(tert-Butoxy)-2-(4′-(4,4-dimethylpiperidin-1-yl)-6′-ethyl-5-isobutoxy-[2, 3′-bipyridin]-5′-yl)acetic acid] | 6 nM
19 | CCC(CC)COc1ccc(-c2cnc(C)c([C@H](OC(C)(C)C)C(=O)O)c2N2CCC(C)(C)CC2)nc1 [Example 359, (2S)-2-(tert-butoxy)-2-[4′-(4,4-dimethylpiperidin-1-yl)-5-(2-ethylbutoxy)-6′-methyl-[2,3′-bipyridine]-5′-yl]acetic acid] | 2 nM
20 | Cc1ccc(Nc2nc(C)c([C@H](OC(C)(C)C)C(=O)O)c(N3CCC(C)(C)CC3)c2-c2ccc(OCCc3ccc(F)cc3)cc2)nc1 [Example 78, (S)-2-(tert-Butoxy)-2-(4-(4,4-dimethylpiperidin-1-yl)-5-(4-(4-fluorophenethoxy)phenyl)-2-methyl-6-((5-methylpyridin-2-yl)amino)pyridin-3-yl)acetic acid] | 6 nM
21 | Cc1nc(N)c(-c2cnc(OCCc3ccccc3F)c(F)c2)c(N2CCC(C)(C)CC2)c1[C@H](OC(C)(C)C)C(=O)O [Example 117, (S)-2-(2-Amino-4-(4,4-dimethylpiperidin-1-yl)-5′-fluoro-6′-(2-fluorophenethoxy)-6-methyl-[3, 3′-bipyridin]-5-yl)-2-(tert-butoxy)acetic acid] | 1 nM
22 | Cc1cc(-c2cnc(C)c([C@H](OC(C)(C)C)C(=O)O)c2N2CCC(C)(C)CC2)cnc1OCC(C)C [Example 428, (S)-2-tert-Butoxy-2-(4-(4,4-dimethylpiperidin-1-yl)-6′-isobutoxy-5′,6-dimethyl-3, 3′-bipyridin-5-yl)acetic acid] | 7 nM
23 | COc1ccc(F)cc1-c1cnc(C)c([C@H](OC(C)(C)C)C(=O)O)c1N1CCC(C)(C)CC1 [Example 151, (2S)-2-(tert-Butoxy)-2-[4-(4,4-dimethylpiperidin-1-yl)-5-(5-fluoro-2-methoxyphenyl)-2-methylpyridin-3-yl]acetic acid] | 6 nM
24 | Cc1nc(NCCC2CCN(C)CC2)c(-c2ccc(OCCc3ccc(F)cc3)cc2)c(N2CCC(C)(C)CC2)c1[C@H](OC(C)(C)C)C(=O)O [Example 31, (S)-2-(tert-Butoxy)-2-(4-(4,4-dimethylpiperidin-1-yl)-5-(4-(4-fluorophenethoxy)phenyl)-2-methyl-6-((2-(1-methylpiperidin-4-yl)ethyl)amino)pyridin-3-yl)acetic acid] | 0.8 nM
25 | Cc1ncc(-c2cccc(OCCc3ccc(F)cc3)n2)c(N2CCC(C)(C)CC2)c1[C@H](OC(C)(C)C)C(=O)O [Example 280, (S)-2-(tert-Butoxy)-2-(4′-(4,4-dimethylpiperidin-1-yl)-6-(4-fluorophenethoxy)-6′-methyl-[2, 3′-bipyridin]-5′-yl)acetic acid] | 20 nM
26 | Cc1nc(NCCn2cccn2)c(-c2ccc(OCCc3ccc(F)cc3)cc2)c(N2CCC(C)(C)CC2)c1[C@H](OC(C)(C)C)C(=O)O [Example 33, (S)-2-(6-((2-(1H-Pyrazol-1-yl)ethyl)amino)-4-(4,4-dimethylpiperidin-1-yl)-5-(4-(4-fluorophenethoxy)phenyl)-2-methylpyridin-3-yl)-2-(tert-butoxy)acetic acid] | 2 nM
27 | COc1ccccc1CCOc1ncc(-c2cnc(C)c([C@H](OC(C)(C)C)C(=O)O)c2N2CCC(C)(C)CC2)cc1F [Example 382, (2S)-2-(tert-butoxy)-2-[4-(4,4-dimethylpiperidin-1-yl)-5′-fluoro-6′-[2-(2-methoxyphenyl)ethoxy]-6-methyl-[3,3′-bipyridine]-5-yl]acetic acid] | 5 nM
